Results reported in patent EP4043466B1, “PRC2 INHIBITORS” (Mirati Therapeutics, Inc., priority 2018, dated 2019).

How the values were obtained:
[1] = target: purified human, His-tagged PRC2 complex (Homo sapiens, UniProt O75530+Q15910); experiment: Hot Spot HMT assay: inhibition of PRC2 enzymatic activity (transfer of tritiated methyl from SAM to core histone, filter binding); type: biochemical; conditions: Inhibition of PRC2-mediated enzymatic activity; 10 nM PRC2 complex, 0.05 mg/ml core histone H3, 1 uM 3H-SAM, 1 hr at 30°C
Chain of purified human, His-tagged PRC2 complex (Q15910 whole entry): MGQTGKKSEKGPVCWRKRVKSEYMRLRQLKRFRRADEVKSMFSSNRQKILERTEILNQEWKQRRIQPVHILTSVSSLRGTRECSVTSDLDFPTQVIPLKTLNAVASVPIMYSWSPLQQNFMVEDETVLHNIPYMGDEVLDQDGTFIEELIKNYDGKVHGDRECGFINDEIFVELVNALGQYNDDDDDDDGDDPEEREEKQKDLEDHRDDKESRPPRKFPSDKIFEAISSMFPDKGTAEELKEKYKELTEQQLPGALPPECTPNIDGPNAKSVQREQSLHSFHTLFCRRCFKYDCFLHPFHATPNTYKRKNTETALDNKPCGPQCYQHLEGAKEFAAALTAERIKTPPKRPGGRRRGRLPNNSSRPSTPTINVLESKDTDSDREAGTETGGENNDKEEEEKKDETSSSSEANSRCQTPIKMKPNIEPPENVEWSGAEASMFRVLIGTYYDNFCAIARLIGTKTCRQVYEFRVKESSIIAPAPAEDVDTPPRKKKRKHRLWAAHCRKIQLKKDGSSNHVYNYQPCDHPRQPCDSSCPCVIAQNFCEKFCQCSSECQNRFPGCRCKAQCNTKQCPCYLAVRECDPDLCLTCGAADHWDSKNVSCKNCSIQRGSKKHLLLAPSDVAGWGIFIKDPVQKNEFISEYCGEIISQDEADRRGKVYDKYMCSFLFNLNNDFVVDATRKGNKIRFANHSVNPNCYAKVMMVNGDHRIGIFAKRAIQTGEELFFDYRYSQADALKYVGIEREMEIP
Chain of purified human, His-tagged PRC2 complex (O75530 whole entry): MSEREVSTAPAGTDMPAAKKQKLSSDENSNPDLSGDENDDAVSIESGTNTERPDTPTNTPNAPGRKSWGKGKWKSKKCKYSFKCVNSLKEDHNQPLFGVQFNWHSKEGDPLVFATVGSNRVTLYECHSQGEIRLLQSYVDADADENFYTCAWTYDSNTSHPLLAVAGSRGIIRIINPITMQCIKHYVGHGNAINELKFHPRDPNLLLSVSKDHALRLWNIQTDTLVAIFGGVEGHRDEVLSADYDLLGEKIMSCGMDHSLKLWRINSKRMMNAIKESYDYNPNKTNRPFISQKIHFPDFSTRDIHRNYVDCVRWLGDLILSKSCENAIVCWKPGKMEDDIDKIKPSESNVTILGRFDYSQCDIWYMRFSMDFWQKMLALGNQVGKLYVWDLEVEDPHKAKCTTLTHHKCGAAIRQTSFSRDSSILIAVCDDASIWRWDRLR
Chain of purified human, His-tagged PRC2 complex (Q15022 whole entry partner): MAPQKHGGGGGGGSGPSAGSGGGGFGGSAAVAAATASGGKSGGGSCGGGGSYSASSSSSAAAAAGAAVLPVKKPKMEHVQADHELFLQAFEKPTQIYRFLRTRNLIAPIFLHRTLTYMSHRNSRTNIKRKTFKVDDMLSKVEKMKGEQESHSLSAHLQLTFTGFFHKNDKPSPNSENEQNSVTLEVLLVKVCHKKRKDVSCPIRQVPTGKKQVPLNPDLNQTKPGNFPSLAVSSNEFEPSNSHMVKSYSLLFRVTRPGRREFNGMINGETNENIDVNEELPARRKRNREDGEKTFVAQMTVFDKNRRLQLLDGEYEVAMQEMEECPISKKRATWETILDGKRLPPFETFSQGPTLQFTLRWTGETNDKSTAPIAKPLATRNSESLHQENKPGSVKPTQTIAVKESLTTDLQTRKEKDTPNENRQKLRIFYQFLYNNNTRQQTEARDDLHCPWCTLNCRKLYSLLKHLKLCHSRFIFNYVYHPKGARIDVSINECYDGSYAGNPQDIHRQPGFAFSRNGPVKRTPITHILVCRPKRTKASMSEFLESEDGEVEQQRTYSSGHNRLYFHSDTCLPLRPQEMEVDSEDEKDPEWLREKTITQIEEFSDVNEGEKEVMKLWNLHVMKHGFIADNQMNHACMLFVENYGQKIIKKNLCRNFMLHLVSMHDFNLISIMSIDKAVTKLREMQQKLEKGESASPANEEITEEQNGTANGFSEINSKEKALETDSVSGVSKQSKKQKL
Chain of purified human, His-tagged PRC2 complex (Q6ZN18 whole entry partner): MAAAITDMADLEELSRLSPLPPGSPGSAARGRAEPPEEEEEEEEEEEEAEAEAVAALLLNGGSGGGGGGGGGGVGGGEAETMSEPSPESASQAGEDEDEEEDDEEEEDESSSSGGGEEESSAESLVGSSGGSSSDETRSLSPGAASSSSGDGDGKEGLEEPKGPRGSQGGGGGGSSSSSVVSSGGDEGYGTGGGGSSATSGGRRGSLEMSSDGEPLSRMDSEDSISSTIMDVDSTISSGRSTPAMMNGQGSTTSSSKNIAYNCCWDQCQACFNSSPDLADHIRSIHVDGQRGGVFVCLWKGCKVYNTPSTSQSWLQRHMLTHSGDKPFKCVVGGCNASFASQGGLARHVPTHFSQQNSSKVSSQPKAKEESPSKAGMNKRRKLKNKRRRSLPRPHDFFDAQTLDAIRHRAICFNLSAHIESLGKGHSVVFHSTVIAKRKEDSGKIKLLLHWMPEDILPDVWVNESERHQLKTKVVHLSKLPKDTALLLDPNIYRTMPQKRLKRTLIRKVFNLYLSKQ
Chain of purified human, His-tagged PRC2 complex (Q09028 whole entry partner): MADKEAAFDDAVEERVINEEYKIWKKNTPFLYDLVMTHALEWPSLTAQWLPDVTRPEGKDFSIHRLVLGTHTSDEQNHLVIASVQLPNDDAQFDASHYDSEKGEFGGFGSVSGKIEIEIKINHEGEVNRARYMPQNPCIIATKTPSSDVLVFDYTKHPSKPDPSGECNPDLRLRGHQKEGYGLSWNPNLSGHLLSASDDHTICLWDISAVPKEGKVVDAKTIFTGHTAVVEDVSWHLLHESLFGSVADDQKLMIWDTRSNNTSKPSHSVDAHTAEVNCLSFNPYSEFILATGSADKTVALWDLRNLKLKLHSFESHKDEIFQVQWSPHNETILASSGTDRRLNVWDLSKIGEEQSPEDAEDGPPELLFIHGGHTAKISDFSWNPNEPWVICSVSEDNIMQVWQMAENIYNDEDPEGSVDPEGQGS
In short: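 Serial compound dilutions starting at 1.0 µM were pre-incubated 20 min at 30°C with 10 nM complex (His-EZH2, Flag-EED, His-SUZ12, His-AEBP2, His-RbAp48) and 0.05 mg/ml core H3. Reaction ran 1 hr at 30°C after adding 1 uM [3H]-SAM; scintillation counting followed filtration.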

[2] = tested on: PRC2-mediated histone H3 methylation; experiment: Tri-Methyl Histone H3 (Lys 27) Sandwich ELISA in Pfeiffer cells: inhibition of PRC2-mediated histone H3 methylation; type: cell-based, human; conditions: Homo sapiens; Inhibition of EZH2-mediated histone H3 trimethylation; Pfeiffer cells (EZH2 A677G), 96 hours incubation
In short: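 Pfeiffer DLBCL cells (EZH2 A677G mutant) treated with 3-fold serial dilutions, 1µM to 0.15 nM final, for 96 hours at 37°C. Acid (0.4M HCl) histone extracts, neutralized, assayed by H3K27me3 sandwich ELISA with HRP/TMB read at 450 nm.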

Karpas 422 cells = experiment: Karpas 422 cell viability, CTG (Cell Titre Glo) assay; type: cell-based, human; conditions: Homo sapiens; Inhibition of proliferation of Karpas 422 cells (EZH2 Y641N); viability measured Day 4, Day 7 or Day 11, time point of the tabulated values not stated
In short: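 CellTiter-Glo viability IC50s taken at Day 4, Day 7 and Day 11 of continuous compound exposure (3-fold series, 10µM top, 1.5nM lowest) in RPMI/20% FBS at 37 °C. Y641N-mutant EZH2 lymphoma line seeded at 1000 cells per well; medium and compound replaced on Day 7 for Day 11 read.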

SMILES	IC50 [1]	IC50 [2]	IC50 (Karpas 422 cells)
Cc1cc(-c2cnc(NCc3c(F)ccc4c3CCO4)n3cc(C#N)nc23)n(C)n1 [Example 86, 8-(1,3-dimethyl-1H-pyrazol-5-yl)-5-(((5-fluoro-2,3-dihydrobenzofuran-4-yl)methyl)amino)imidazo[1,2-c]pyrimidine-2-carbonitrile]	< 0.1 µM	≤ 0.1 µM	≤ 0.25 µM
CNC(=O)c1cc(-c2cnc(NCc3c(F)ccc4c3CCO4)n3cc(C#N)nc23)n(C)n1 [Example 208, 5-(2-cyano-5-(((5-fluoro-2,3-dihydrobenzofuran-4-yl)methyl)amino)imidazo[1,2-c]pyrimidin-8-yl)-N, 1-dimethyl-1H-pyrazole-3-carboxamide]	< 0.1 µM	0.1 to 0.5 µM	≤ 0.25 µM
Cc1c(C#N)cccc1-c1cnc(NCc2c(F)ccc3c2CCO3)n2cc(C#N)nc12 [Example 176, 8-(3-cyano-2-methylphenyl)-5-(((5-fluoro-2,3-dihydrobenzofuran-4-yl)methyl)amino)imidazo[1,2-c]pyrimidine-2-carbonitrile]	< 0.1 µM	0.1 to 0.5 µM	0.25 to 0.5 µM
N#Cc1cn2c(NCc3c(F)ccc4c3CCO4)ncc(-c3ccccc3C#N)c2n1 [Example 187, 8-(2-cyanophenyl)-5-(((5-fluoro-2,3-dihydrobenzofuran-4-yl)methyl)amino)imidazo[1,2-c]pyrimidine-2-carbonitrile]	< 0.1 µM	0.1 to 0.5 µM	0.25 to 0.5 µM
Cc1cc(S(=O)(=O)C(F)(F)F)ccc1-c1cnc(NCc2c(F)ccc3c2CCO3)n2cc(C#N)nc12 [Example 184, 5-(((5-fluoro-2,3-dihydrobenzofuran-4-yl)methyl)amino)-8-(2-methyl-4-((trifluoromethyl)sulfonyl)phenyl)imidazo[1,2-c]pyrimidine-2-carbonitrile]	0.1 to 0.5 µM	0.1 to 0.5 µM	0.25 to 0.5 µM
Cc1c(-c2cnc(NCc3c(F)ccc4c3CCO4)n3cc(C#N)nc23)cnc(CN(C)C)c1F [Example 233, 8-(6-((dimethylamino)methyl)-5-fluoro-4-methylpyridin-3-yl)-5-(((5-fluoro-2,3-dihydrobenzofuran-4-yl)methyl)amino)imidazo[1,2-c]pyrimidine-2-carbonitrile]	< 0.1 µM	≤ 0.1 µM	≤ 0.25 µM
CN(C)Cc1ccc(-c2cnc(NCc3c(F)ccc4c3CCO4)n3cc(C#N)nc23)c(F)c1 [Example 61, 8-(4-((dimethylamino)methyl)-2-fluorophenyl)-5-(((5-fluoro-2,3-dihydrobenzofuran-4-yl)methyl)amino)imidazo[1,2-c]pyrimidine-2-carbonitrile]	< 0.1 µM	≤ 0.1 µM	≤ 0.25 µM
CNCc1ccc(-c2cnc(NCc3c(F)ccc4c3CCO4)n3cc(C#N)nc23)cc1F [Example 197, 5-(((5-fluoro-2,3-dihydrobenzofuran-4-yl)methyl)amino)-8-(3-fluoro-4-((methylamino)methyl)phenyl)imidazo[1,2-c]pyrimidine-2-carbonitrile]	< 0.1 µM	0.1 to 0.5 µM	≤ 0.25 µM
COCCOc1ccc(-c2cnc(NCc3c(F)ccc4c3CCO4)n3cc(C#N)nc23)c(C)c1 [Example 206, 5-(((5-fluoro-2,3-dihydrobenzofuran-4-yl)methyl)amino)-8-(4-(2-methoxyethoxy)-2-methylphenyl)imidazo[1,2-c]pyrimidine-2-carbonitrile]	0.1 to 0.5 µM	0.1 to 0.5 µM	0.25 to 0.5 µM
CN(C)c1ccc(-c2cnc(NCc3c(F)ccc4c3CCO4)n3cc(C#N)nc23)cn1 [Example 60, 8-(6-(dimethylamino)pyridin-3-yl)-5-(((5-fluoro-2,3-dihydrobenzofuran-4-yl)methyl)amino)imidazo[1,2-c]pyrimidine-2-carbonitrile]	0.1 to 0.5 µM	> 0.5 µM	0.25 to 0.5 µM
